Laboratory results reported in US8716302B2, “Compounds for inducing cellular apoptosis” (Queen Mary & Westfield College, priority 2009, dated 2014).
Where “and” joins values, the source holds several entries; their conditions need not be identical. Identical values can stand only once. Like-named read-outs stand apart in the source and are kept apart here.

Columns and labels:
[1] = system: DoHH2 (lymphoma) cell line; assay: DiOC6(3) flow evaluation of cell viability and apoptosis, DoHH2 (lymphoma) cell line; assay type: cell-based, human; conditions: for Percentage Cell Viability: DoHH2 cells, 50 μM; for cytotoxicity at 50 µM / viability at 50 µM: Homo sapiens, DOHH-2, DoHH2 cells
Experimental: DiOC6(3) flow evaluation of cell viability and levels of apoptosis was carried out at 10 and 50 μm concentrations. For each entry in FIG. 1, % apoptosis is on the left and % viable is on the right.
Measurement of Mitochondrial Membrane Potential depolarisation and mitochondrial permeability transition (MPT). Cells were incubated for 20 minutes at 37° C. in the dark with the cationic lipophillic (amphipathic) probe 3,3′-dihexyloxacarbocyanine iodide, DiOC6(3) (80 nM), then counter stained for 10 minutes with propidium iodide (20 μg/ml). DiOC6(3) is sequestered within the mitochondrial matrix due to the inner membrane potential (Δψm), according to the Nernst equation, dissipation leading to a reduction in mitochondrial retention and decreased cellular DiOC6(3) fluorescence. Collapse of Δψm was prevented by incubating cells for 30 minutes with 50 μM bongkrekic acid. Events with increased propidium iodide fluorescence were subtracted, by gating, from the DiOC6(3) histograms to eliminate dead cells, with loss of plasma membrane integrity. Dose-response curves used the calculated proportion of DiOC6(3)low, cells as the dependent variable on the ordinate. To measure MPT directly, cells were incubated with 1 μM calcein AM for 30 minutes, followed by 1 mM […] cobalt. Cobalt quenches calcein fluorescence, but cannot traverse an intact inner mitochondrial membrane to enter the mitochondrial matrix, to which calcein equilibrates. Opening of the PTPC allows cobalt to enter, reducing calcein fluorescence.
The Lymphoma cell line (DoHH2) was treated with PK11195 and various compounds of the invention at doses of 10 and 50 μmol concentrations. Levels of cell viability and apoptosis were measured by DiOC6 flow evaluation. DiOC6 is a fluorescent dye which acts as a surrogate marker of mitochondrial depolarisation. Uptake of DiOC6 and consequent fluorescence is a measure of opening of the permeability transition pore complex (PTPC).
The following tables set out % viability and % apoptosis results seen for treatment of DoHH2 cells with certain compounds of the invention at a dosage of 50 μM, in comparison with untreated cells. The assay procedure used was as described above in respect of “Treatment of DoHH 2 (Lymphoma) Cell Line”.

DoHH2 cells = assay: Superoxide purging with MnTBAP, apoptosis in DoHH2 cells; assay type: cell-based, human; conditions: with and without ROS scavenger MnTBAP
Experimental: For each entry in FIG. 2, DAPI viable is on the left and DAPI non viable is on the right.
O^2-• was detected by incubating cells for 15 minutes in 5 μM dihydroethidium, which is oxidized to ethidium. To test the effect of O^2-• […] on O^2-• generation, cells were treated with 100 μM MnTBAP for 45 minutes. Hydrogen peroxide was detected by loading cells for 30 minutes with 5 μM CM-H2DCFDA, and its formation inhibited by preincubation with 500 U/ml catalase for 30 minutes. Dose-response curves for CM-H2DCFDA used the calculated proportion of CM-H2DCFDAhigh cells as the dependent variable.
DoHH2 cells were exposed to AAW-001, AAW-0014 and PK11195 in the presence and absence of the mitochondrial reactive oxygen species (ROS) scavenger MnTBAP.

[2] = system: human lymphoma DoHH2 cell line xenograft; assay: DoHH2 xenograft NOD/SCID mice; assay type: in vivo; conditions: for mice alive at 10 weeks: cohorts of ten mice
Experimental: NOD/SCID mice xenografted with the human lymphoma DoHH2 cell line were treated two weeks post inoculation with the human B cell lymphoma cell line DoHH2. There were three cohorts of ten mice. For two cohorts, treatment consisted of 50 microgram intraperitoneal (IP) doses twice weekly for three weeks of PK11195 or AAW-0014, respectively. The third cohort was treated with 200 microlitres of saline twice weekly over a 3 week period. The mice were then observed for up to six weeks. All of the saline treated mice were dead due to disease at 10 weeks. […] All of the AAW-0014 treated mice were alive at 10 weeks showing less than 20% splenic involvement, including 2 mice with no detectable disease.

[3] = average of repeats, read-out: Percentage Cell Apoptosis, Averages
[4] = average of repeats, read-out: Percentage Cell Viability, Averages
[5] = individual repeats, read-out: Percentage Cell Apoptosis
[6] = 50 microgram IP twice weekly for three weeks
[7] = at 10 weeks, 50 microgram IP twice weekly for three weeks
[8] = individual repeats, read-out: Percentage Cell Viability

Row | SMILES | cytotoxicity at 50 µM [1, 3] | viability at 50 µM [1, 4] | cytotoxicity at 50 µM [1, 5] | viability at 50 µM [1, 8] | also measured
1 | CC(C)C(=O)Nc1cc2c(c(-c3ccccc3Cl)c1)CCN(C(=O)C(F)(F)F)C2 [CO-AAW0001, N-[5-(2-chloro-phenyl)-2-(2,2,2-trifluoro-acetyl)-1,2,3,4-tetrahydro-isoquinolin-7-yl]-isobutyramide] | 52.8% | 59.7% | – | – | Percentage Cell Viability ([1]; individual repeats, listed as 1, 50 µM): 73.8% and 67.7% and 47.9% and 62.5% and 48.0% and 52.8% and 52.9% and 48.5% and 68.4% and 65.4%
2 | CC(C)C(=O)Nc1cc2ccccc2c(-c2ccccc2Cl)n1 [CO-AAW0007] | 26.1% | 76.1% | – | – | Percentage Cell Viability ([1]; individual repeats, listed as 7, 50 µM): 63.9% and 88.2%
3 | CCC(C)C(=O)Nc1cc2ccccc2c(-c2ccccc2Cl)n1 (centres unmarked) [CO-AAW0008] | 39.2% | 67.9% | 48.8% | – | Percentage Cell Viability ([1]; individual repeats, listed as 8, 50 µM): 54.1% and 81.7%
4 | CC(C)NC(=O)c1cc2ccccc2c(-c2ccccc2Cl)n1 [CO-AAW0009] | 32.4% | 69.9% | – | – | Percentage Cell Viability ([1]; individual repeats, listed as 9, 50 µM): 48.8% and 90.5%
5 | CCCCC(=O)Nc1nc2c(c(-c3ccccc3Cl)n1)CN(Cc1ccccc1)CC2 [CO-AAW00014, pentanoic acid [6-benzyl-4-(2-chloro-phenyl)-5,6,7,8-[4,3-d]pyrimidin-2-yl]-amide] | 65.5% | 53.1% | – | – | Percentage Cell Viability ([1]; individual repeats, listed as 14, 50 µM): 68.8% and 42.3% and 39.4% and 65.8% and 51.8% and 54.3% and 49.6%; ability to induce apoptosis in the presence of MnTBAP (DoHH2 cells): inhibited by MnTBAP; drug related toxicities [2, 6]: No major drug related toxicities were observed; splenic involvement [2, 7]: less than 20%; mice with no detectable disease ([2]; at 10 weeks, of ten mice): 2; mice alive at 10 weeks [2, 6]: All
6 | O=C(Nc1nc2c(c(-c3ccccc3Cl)n1)CN(Cc1ccccc1)CC2)c1cccc(Cl)c1Cl [CO-AAW00016, N-[6-benzyl-4-(2-chlorophenyl)-5H,6H,7H,8H-pyrido[4,3-d]pyrimidin-2-yl]-2,3-dichlorobenzamide] | 33.5% | 77.5% | 33.4% | 78.5% | Percentage Cell Viability ([1]; individual repeats, listed as 16, 50 µM): 76.5%
7 | CCCC(=O)N1CCc2c(cc([N+](=O)[O-])cc2-c2ccccc2Cl)C1 [CO-AAW00017, 1-[5-(2-chlorophenyl)-7-nitro-1,2,3,4-tetrahydroisoquinolin-2-yl]butan-1-one] | 49.2% | 71.3% | 43% | 74.2% | Percentage Cell Viability ([1]; individual repeats, listed as 17, 50 µM): 68.4%
8 | CC(C)NC(=O)c1cc2ccccc2c(-c2c(Cl)cccc2Cl)n1 [CO-AAW00018] | 24.1% | 82% | 25.6% | 84.8% | Percentage Cell Viability ([1]; individual repeats, listed as 18, 50 µM): 79.2%
9 | CNC(=O)c1cc2ccccc2c(-c2ccccc2Cl)n1 [CO-AAW00020] | 17.3% | 75.7% | 17.1% | 72.7% | Percentage Cell Viability ([1]; individual repeats, listed as 20, 50 µM): 78.7%
10 | CCCCNC(=O)c1cc2ccccc2c(-c2ccccc2Cl)n1 [CO-AAW00022] | 65.4% | 28.4% | 62.9% | 37.4% | Percentage Cell Viability ([1]; individual repeats, listed as 22, 50 µM): 19.4%
11 | CC(C)C(=O)Nc1cc2c(c(-c3ccccc3Cl)c1)CCN(C(=O)c1ccccc1)C2 [CO-AAW00025, N-[2-Benzoyl-5-(2-chloro-phenyl)-1,2,3,4-tetrahydroisoquinolin-7-yl]2-methylpropanamide] | 15.4% | 67.6% | 19.7% | – | Percentage Cell Viability ([1]; individual repeats, listed as 25, 50 µM): 56.3% and 78.8%
12 | CCCCC(=O)Nc1cc2c(c(-c3ccccc3Cl)c1)CCN(C(=O)C(F)(F)F)C2 [CO-AAW00030, pentanoic acid [5-(2-chlorophenyl)-2-(2,2,2-trifluoro-acetyl)-1,2,3,4-tetrahydro-isoquinolin-7-yl]amide] | 61.2% | 64.3% | 61.2% | 64.3% | –
13 | CCC(C)N(C)C(=O)c1cc2ccccc2c(-c2ccccc2Cl)n1 (centres unmarked) [PK11195, 1-(2-chlorophenyl)-N-methyl-N-(1-methylpropyl)-3-isoquinolinecarboxamide, reference compound] | – | – | – | – | disease on splenic assessment on culling [2, 7]: moderate levels of disease; mice alive at 10 weeks [2, 6]: Five of the ten
